{"source": "paper PMC7988358", "about": "“Characterization of GMPP from Dendrobium huoshanense yielding GDP-D-mannose” (Open Life Sciences, 2021)", "biological_target": "T1, DhGMPP (Dendrobium huoshanense, UniProt A0A348HAW3)", "T1 construct": "gene GMPP; E. coli BL21-AI crude soluble extract, not purified", "T1 sequence (A0A348HAW3 1-415)": "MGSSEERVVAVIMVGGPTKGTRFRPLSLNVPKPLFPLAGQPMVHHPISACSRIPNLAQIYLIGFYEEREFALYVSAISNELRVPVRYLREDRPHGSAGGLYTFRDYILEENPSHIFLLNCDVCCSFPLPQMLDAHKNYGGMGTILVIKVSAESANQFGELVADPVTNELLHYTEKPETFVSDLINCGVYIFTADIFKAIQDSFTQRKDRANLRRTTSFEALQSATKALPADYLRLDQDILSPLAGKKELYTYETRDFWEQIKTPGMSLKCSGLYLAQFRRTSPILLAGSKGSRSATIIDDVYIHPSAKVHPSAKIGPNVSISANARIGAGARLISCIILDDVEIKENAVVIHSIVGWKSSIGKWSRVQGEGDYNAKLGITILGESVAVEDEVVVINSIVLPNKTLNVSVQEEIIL", "experiment": "HPLC ([…] nm) detection of GDP-mannose formed", "assay_type": "biochemical", "settings": "2.5 mM GTP, 5 mM MgCl2, 50 mM Tris-HCl pH 7.4, 37 °C, 10 min, crude E. coli extract, untransformed-host extract and boiled protein as controls", "data": [{"molecule": "O=P(O)(O)O[C@H]1O[C@H](CO)[C@@H](O)[C@H](O)[C@@H]1O", "note": "[α-D-mannose-phosphate]", "values": [{"measurement": "HPLC (254 nm) detection of GDP-mannose formed", "setting": "5 mM substrate", "result": "By utilizing GTP and α-D-mannose-phosphate as substrates, DhGMPP catalyzes the reaction to yield GDP-mannose"}]}, {"molecule": "Nc1nc2c(ncn2[C@@H]2O[C@H](COP(=O)(O)OP(=O)(O)OP(=O)(O)O)[C@@H](O)[C@H]2O)c(=O)[nH]1", "note": "[GTP]", "values": [{"measurement": "HPLC (254 nm) detection of GDP-mannose formed", "setting": "5 mM α-D-mannose-phosphate", "result": "By utilizing GTP and α-D-mannose-phosphate as substrates, DhGMPP catalyzes the reaction to yield GDP-mannose"}]}]}
